Laboratory results as given in ChEMBL document CHEMBL1201862, “PubChem BioAssay data set” (2004).
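Each compound was tested at five concentrations against cells in 96-well plates for 48 hours. GI50 is the concentration that inhibits growth by half.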 Calls of active or inactive are those of the source. Rule as the data show it: active = GI50 up to about 1.1 µM and inactive = higher.

How the values were obtained:
Test in all cases: NCI tumour cell line growth inhibition, 48 h
786-0 = tested on: 786-0
A498 = tested on: A498
ACHN = tested on: ACHN
CAKI-1 = tested on: CAKI-1
CCRF-CEM = tested on: CCRF-CEM
DU-145 = tested on: DU-145
EKVX = tested on: EKVX
HCC 2998 = tested on: HCC 2998
HCT-116 = tested on: HCT-116
HCT-15 = tested on: HCT-15
HL-60 = tested on: HL-60
HOP-62 = tested on: HOP-62
HOP-92 = tested on: HOP-92
HT-29 = tested on: HT-29
Hs-578T = tested on: Hs-578T
IGROV-1 = tested on: IGROV-1
K562 = tested on: K562
KM12 = tested on: KM12
LOX IMVI = tested on: LOX IMVI
M14 = tested on: M14
MCF7 = tested on: MCF7
MDA-MB-231 = tested on: MDA-MB-231
MDA-MB-435 = tested on: MDA-MB-435
MDA-N = tested on: MDA-N
MOLT-4 = tested on: MOLT-4
NCI-H226 = tested on: NCI-H226
NCI-H23 = tested on: NCI-H23
NCI-H460 = tested on: NCI-H460
NCI-H522 = tested on: NCI-H522
NCI/ADR-RES = tested on: NCI/ADR-RES
OVCAR-3 = tested on: OVCAR-3
OVCAR-4 = tested on: OVCAR-4
OVCAR-5 = tested on: OVCAR-5
OVCAR-8 = tested on: OVCAR-8
PC-3 = tested on: PC-3
RPMI-8226 = tested on: RPMI-8226
RXF 393 = tested on: RXF 393
SF-268 = tested on: SF-268
SF-295 = tested on: SF-295
SF-539 = tested on: SF-539
SK-MEL-28 = tested on: SK-MEL-28
SK-MEL-2 = tested on: SK-MEL-2
SK-MEL-5 = tested on: SK-MEL-5
SK-OV-3 = tested on: SK-OV-3
SR = tested on: SR
SW-620 = tested on: SW-620
T47D = tested on: T47D
TK-10 = tested on: TK-10
U-251 = tested on: U-251
UACC-257 = tested on: UACC-257
UO-31 = tested on: UO-31
A549 = tested on: A549
COLO 205 = tested on: COLO 205
Malme-3M = tested on: Malme-3M
SN12C = tested on: SN12C
SNB-19 = tested on: SNB-19
SNB-75 = tested on: SNB-75
UACC-62 = tested on: UACC-62

COC(=O)/C(C)=N/N=C(\S)SC
GI50 (786-0): 35.9 µM (inactive) | GI50 (A498): > 100 µM (inactive) | GI50 (ACHN): 34.1 µM (inactive) | GI50 (CAKI-1): 35.2 µM (inactive) | GI50 (CCRF-CEM): 0.0428 µM (active) | GI50 (DU-145): 24.3 µM (inactive) | GI50 (EKVX): > 100 µM (inactive) | GI50 (HCC 2998): 40.6 µM (inactive) | GI50 (HCT-116): 31.6 µM (inactive) | GI50 (HCT-15): 36.7 µM | GI50 (HL-60): 0.105 µM (active) | GI50 (HOP-62): > 100 µM (inactive) | GI50 (HOP-92): > 100 µM (inactive) | GI50 (HT-29): 17.3 µM (inactive) | GI50 (Hs-578T): 28.8 µM (inactive) | GI50 (IGROV-1): 47.5 µM (inactive) | GI50 (K562): 75 µM (inactive) | GI50 (KM12): 52.5 µM (inactive) | GI50 (LOX IMVI): 37.2 µM (inactive) | GI50 (M14): 23.2 µM (inactive) | GI50 (MCF7): 35.4 µM (inactive) | GI50 (MDA-MB-231): 46.6 µM (inactive) | GI50 (MDA-MB-435): 60.5 µM (inactive) | GI50 (MDA-N): 77.1 µM (inactive) | GI50 (MOLT-4): 55.1 µM (inactive) | GI50 (NCI-H226): > 100 µM (inactive) | GI50 (NCI-H23): 45.6 µM (inactive) | GI50 (NCI-H460): 26.9 µM (inactive) | GI50 (NCI-H522): 22.7 µM (inactive) | GI50 (NCI/ADR-RES): 30 µM (inactive) | GI50 (OVCAR-3): 24.8 µM (inactive) | GI50 (OVCAR-4): 46.3 µM (inactive) | GI50 (OVCAR-5): 80.2 µM (inactive) | GI50 (OVCAR-8): 36.4 µM (inactive) | GI50 (PC-3): 36.5 µM (inactive) | GI50 (RPMI-8226): 66.4 µM (inactive) | GI50 (RXF 393): 16.7 µM (inactive) | GI50 (SF-268): 21.8 µM (inactive) | GI50 (SF-295): 40.2 µM (inactive) | GI50 (SF-539): 82.6 µM (inactive) | GI50 (SK-MEL-28): 44.5 µM (inactive) | GI50 (SK-MEL-2): 31 µM (inactive) | GI50 (SK-MEL-5): 29.2 µM (inactive) | GI50 (SK-OV-3): > 100 µM (inactive) | GI50 (SR): 49.7 µM (inactive) | GI50 (SW-620): 44.3 µM (inactive) | GI50 (T47D): 18.1 µM (inactive) | GI50 (TK-10): 95.5 µM (inactive) | GI50 (U-251): 38.5 µM (inactive) | GI50 (UACC-257): 50.9 µM (inactive) | GI50 (UO-31): 36.7 µM (inactive)

O=C1c2c(ccc3c2CCC3)CC12Cc1ccccc1C2
GI50 (786-0): 20.7 µM (inactive) | GI50 (A498): 12.4 µM (inactive) | GI50 (A549): 22.3 µM (inactive) | GI50 (ACHN): 13.7 µM (inactive) | GI50 (CAKI-1): 5.94 µM (inactive) | GI50 (CCRF-CEM): 11.4 µM (inactive) | GI50 (COLO 205): 16.6 µM (inactive) | GI50 (DU-145): 17.7 µM (inactive) | GI50 (EKVX): 22.5 µM (inactive) | GI50 (HCC 2998): 22 µM (inactive) | GI50 (HCT-116): 5.92 µM (inactive) | GI50 (HCT-15): 15.6 µM | GI50 (HL-60): 10.4 µM (inactive) | GI50 (HOP-62): 20.9 µM (inactive) | GI50 (HOP-92): 10.5 µM (inactive) | GI50 (HT-29): 9.08 µM (inactive) | GI50 (Hs-578T): 21.4 µM (inactive) | GI50 (IGROV-1): 29 µM (inactive) | GI50 (K562): 20.5 µM (inactive) | GI50 (KM12): 22.5 µM (inactive) | GI50 (LOX IMVI): 12.7 µM (inactive) | GI50 (M14): 19.8 µM (inactive) | GI50 (MCF7): 27.5 µM (inactive) | GI50 (MDA-MB-231): 22.4 µM (inactive) | GI50 (MDA-MB-435): 13.2 µM (inactive) | GI50 (MDA-N): 2.94 µM (inactive) | GI50 (MOLT-4): 5.04 µM (inactive) | GI50 (Malme-3M): 18.9 µM (inactive) | GI50 (NCI-H226): 18 µM (inactive) | GI50 (NCI-H23): 20.8 µM (inactive) | GI50 (NCI-H460): 7.03 µM (inactive) | GI50 (NCI-H522): 11.6 µM (inactive) | GI50 (NCI/ADR-RES): 28.4 µM (inactive) | GI50 (OVCAR-3): 17.7 µM (inactive) | GI50 (OVCAR-4): 31.2 µM (inactive) | GI50 (OVCAR-5): 30 µM (inactive) | GI50 (OVCAR-8): 20.5 µM (inactive) | GI50 (PC-3): 25.1 µM (inactive) | GI50 (RPMI-8226): 7.38 µM (inactive) | GI50 (RXF 393): 11.5 µM (inactive) | GI50 (SF-268): 33.7 µM (inactive) | GI50 (SF-295): 91.4 µM (inactive) | GI50 (SF-539): 12.2 µM (inactive) | GI50 (SK-MEL-28): 25 µM (inactive) | GI50 (SK-MEL-2): 21.4 µM (inactive) | GI50 (SK-MEL-5): 10.9 µM (inactive) | GI50 (SK-OV-3): 17.9 µM (inactive) | GI50 (SN12C): 19.5 µM (inactive) | GI50 (SNB-19): 33.7 µM (inactive) | GI50 (SNB-75): 21.5 µM (inactive) | GI50 (SW-620): 8.41 µM (inactive) | GI50 (T47D): 28.2 µM (inactive) | GI50 (TK-10): 21.5 µM (inactive) | GI50 (U-251): 22.2 µM (inactive) | GI50 (UACC-257): 22.1 µM (inactive) | GI50 (UO-31): 5.27 µM (inactive)

CC(=O)N(CN1C(=O)CCC1C(=O)O)c1cccc(O)c1 (stereo not drawn)
GI50 (786-0): > 100 µM (inactive) | GI50 (A498): > 100 µM (inactive) | GI50 (A549): > 100 µM (inactive) | GI50 (ACHN): > 100 µM (inactive) | GI50 (CAKI-1): > 100 µM (inactive) | GI50 (CCRF-CEM): > 100 µM (inactive) | GI50 (COLO 205): > 100 µM (inactive) | GI50 (DU-145): > 100 µM (inactive) | GI50 (EKVX): > 100 µM (inactive) | GI50 (HCC 2998): > 100 µM (inactive) | GI50 (HCT-116): > 100 µM (inactive) | GI50 (HCT-15): > 100 µM | GI50 (HL-60): > 100 µM (inactive) | GI50 (HOP-62): > 100 µM (inactive) | GI50 (HOP-92): > 100 µM (inactive) | GI50 (HT-29): > 100 µM (inactive) | GI50 (Hs-578T): > 100 µM (inactive) | GI50 (IGROV-1): > 100 µM (inactive) | GI50 (K562): > 100 µM (inactive) | GI50 (KM12): > 100 µM (inactive) | GI50 (LOX IMVI): > 100 µM (inactive) | GI50 (M14): > 100 µM (inactive) | GI50 (MCF7): > 100 µM (inactive) | GI50 (MDA-MB-231): > 100 µM (inactive) | GI50 (MDA-MB-435): > 100 µM (inactive) | GI50 (MDA-N): > 100 µM (inactive) | GI50 (MOLT-4): > 100 µM (inactive) | GI50 (Malme-3M): > 100 µM (inactive) | GI50 (NCI-H226): > 100 µM (inactive) | GI50 (NCI-H23): > 100 µM (inactive) | GI50 (NCI-H460): > 100 µM (inactive) | GI50 (NCI-H522): > 100 µM (inactive) | GI50 (NCI/ADR-RES): > 100 µM (inactive) | GI50 (OVCAR-3): > 100 µM (inactive) | GI50 (OVCAR-4): > 100 µM (inactive) | GI50 (OVCAR-5): > 100 µM (inactive) | GI50 (OVCAR-8): > 100 µM (inactive) | GI50 (PC-3): > 100 µM (inactive) | GI50 (RPMI-8226): > 100 µM (inactive) | GI50 (SF-268): > 100 µM (inactive) | GI50 (SF-295): > 100 µM (inactive) | GI50 (SF-539): > 100 µM (inactive) | GI50 (SK-MEL-28): > 100 µM (inactive) | GI50 (SK-MEL-2): > 100 µM (inactive) | GI50 (SK-MEL-5): > 100 µM (inactive) | GI50 (SK-OV-3): > 100 µM (inactive) | GI50 (SN12C): > 100 µM (inactive) | GI50 (SNB-19): > 100 µM (inactive) | GI50 (SNB-75): > 100 µM (inactive) | GI50 (SW-620): > 100 µM (inactive) | GI50 (T47D): > 100 µM (inactive) | GI50 (TK-10): > 100 µM (inactive) | GI50 (U-251): > 100 µM (inactive) | GI50 (UACC-257): > 100 µM (inactive) | GI50 (UACC-62): > 100 µM (inactive) | GI50 (UO-31): > 100 µM (inactive)
